Experimental data reported in US9932637B2, “Genetic polymorphisms associated with cardiovascular disorders and drug response, methods of detection and uses thereof” (CELERA CORPORATION, priority 2003, dated 2018).

Tested on: patients with prior myocardial infarction (CARE study)
Assay: CARE: association of SNPs with pravastatin treatment in RMI prevention (genotypic RR in placebo and statin strata; Table 10)
Type: in vivo, human
Excerpt: In order to identify genetic markers associated with acute coronary events (e.g. MI, stroke, unstable angina, congestive heart failure, etc.) or response to statin treatment for the prevention of coronary events, samples from the Cholesterol and Recurrent Events (CARE) study (a randomized multicentral double-blinded trial on secondary prevention of acute coronary events with pravastatin) (Sacks et al., 1991, Am. J. Cardiol. 68: 1436-1446) were genotyped. A well-documented myocardial infarction (MI) was one of the enrollment criteria for entry into the CARE study. Patients were enrolled in the CARE trial from 80 participating study centers. […] Patients were randomized to receive either 40 mg of pravastatin once daily or a matching placebo. The primary endpoint of the trial was death from coronary heart disease and the median duration of follow-up was 5.0 years (range, 4.0 to 6.2 years). […] Secondary endpoints of other related cardiovascular or metabolic disease events, and changes in clinical variables were also recorded in pravastatin-treated and placebo groups. All individuals included in the study had signed a written informed consent form and the study protocol was approved by the respective Institutional Review Boards (IRBs).
For genotyping SNPs in CARE patient samples, DNA was extracted from blood samples using conventional DNA extraction methods such as the QIA-amp kit from Qiagen. Genotypes were obtained on an ABI PRISM® 7900HT Sequence Detection PCR system (Applied Biosystems, Foster City, Calif.) by kinetic allele-specific PCR, similar to the method described by Germer et al. (Germer S., Holland M. J., Higuchi R. 2000, Genome Res. 10: 258-266).
For statistical analysis of association of SNPs with pravastatin treatment in RMI prevention (Table 10), effect sizes were estimated through genotypic RR, including 95% CIs. Homogeneity of Cochran-Mantel-Haenszel odds ratios was tested across pravastatin and placebo strata using the Wald test. […] (this adjustment supports independence of the SNP association from conventional risk factors). This table also provides the frequency data for the at risk allele in the columns labeled “Case Y PRIMER ALLELE Nucleotide Frequency” and “Control Y PRIMER ALLELE Nucleotide Frequency”. Allele frequencies for the cases and controls ≤0.49 indicate that the at-risk allele is the minor allele. Allele frequencies ≥0.50 indicate that the at-risk allele is the major allele. An example of a SNP associated with increased risk for an adverse cardiovascular event in the placebo group using a dominant genotypic test is hCV25644901. […] However, this same SNP was protective in the statin treated group with a RR of 0.58. An example of a SNP associated with an adverse cardiovascular event in the placebo group using the allelic association test is hCV16044337 with a RR of 1.87 for the homozygous AA genotype. This same genotype was protective in the statin treated group with a RR of 0.56.

Q: Which “RR (relative risk for RMI)” value (ABCA1 hCV2741051, Het(TC) stratum, Statin vs Placebo) does the source give for CC[C@H](C)C(=O)O[C@H]1C[C@H](O)C=C2C=C[C@H](C)[C@H](CC[C@@H](O)C[C@@H](O)CC(=O)O)[C@H]21 [pravastatin] here?
A: 0.92

Q: What about the “RR (relative risk for RMI)” value (ABCA1 hCV2741051, Maj Hom(CC) stratum, Statin vs Placebo) of the same compound?
A: 0.59

Q: What about the “RR (relative risk for RMI)” value (ABCA1 hCV2741051, Min Hom(TT) stratum, Statin vs Placebo) of the same compound?
A: 1.25

Q: What about the “RR (relative risk for RMI)” value (ABCA1 hCV2741051, Statin stratum, het(TC) vs. ref(CC)) of the same compound?
A: 1.09

Q: What about the “RR (relative risk for RMI)” value (ABCA1 hCV2741051, Statin stratum, hom(TT) vs. ref(CC)) of the same compound?
A: 1.14

Q: What about the “RR (relative risk for RMI)” value (ABCA1 hCV2741083, Het(TC) stratum, Statin vs Placebo, covars none) of the same compound?
A: 1.51

Q: What about the “RR (relative risk for RMI)” value (ABCA1 hCV2741083, Maj Hom(TT) stratum, Statin vs Placebo, covars none) of the same compound?
A: 0.61

Q: And the “RR (relative risk for RMI)” value (ABCA1 hCV2741083, Min Hom(CC) stratum, Statin vs Placebo, covars none)?
A: 1.36

Q: What about the “RR (relative risk for RMI)” value (ABCA1 hCV2741083, Statin stratum, het(TC)vs. ref(TT), covars none) of the same compound?
A: 1.29

Q: What about the “RR (relative risk for RMI)” value (ABCA1 hCV2741083, Statin stratum, hom (CC)vs. ref(TT), covars none) of the same compound?
A: 1.00

Q: And the “RR (relative risk for RMI)” value (ATF6 hCV25631989, Het (TC) stratum, Statin vs Placebo)?
A: 2.43

Q: What about the “RR (relative risk for RMI)” value (ATF6 hCV25631989, Maj Hom (CC) stratum, Statin vs Placebo) of the same compound?
A: 0.66

Q: What about the “RR (relative risk for RMI)” value (ATF6 hCV25631989, Statin stratum, het(TC) vs. ref (CC)) of the same compound?
A: 1.53

Q: And the “RR (relative risk for RMI)” value (CYBA hCV2038, Het(AG) stratum, Statin vs Placebo, covars hx_smoke)?
A: 0.74

Q: And the “RR (relative risk for RMI)” value (CYBA hCV2038, Maj Hom(GG) stratum, Statin vs Placebo, covars hx_smoke)?
A: 0.55

Q: What about the “RR (relative risk for RMI)” value (CYBA hCV2038, Min Hom(AA) stratum, Statin vs Placebo, covars hx_smoke) of the same compound?
A: 1.38

Q: And the “RR (relative risk for RMI)” value (CYBA hCV2038, Statin stratum, het(AG) vs. ref(GG), covars hx_smoke)?
A: 1.40

Q: And the “RR (relative risk for RMI)” value (CYBA hCV2038, Statin stratum, hom(AA) vs. ref(GG), covars hx_smoke)?
A: 2.02

Q: And the “RR (relative risk for RMI)” value (EDG3 hCV25610470, Het(GA) stratum, Statin vs Placebo, covars HX_SMOKE)?
A: 0.22

Q: And the “RR (relative risk for RMI)” value (EDG3 hCV25610470, Maj Hom(GG) stratum, Statin vs Placebo, covars HX_SMOKE)?
A: 0.77

Q: And the “RR (relative risk for RMI)” value (EDG3 hCV25610470, Min Hom(AA) stratum, Statin vs Placebo, covars HX_SMOKE)?
A: 1.10

Q: What about the “RR (relative risk for RMI)” value (EDG3 hCV25610470, Statin stratum, het(GA) vs. ref(GG), covars HX_SMOKE) of the same compound?
A: 0.37

Q: What about the “RR (relative risk for RMI)” value (F7 hCV783184, Het(TG) stratum, Statin vs Placebo) of the same compound?
A: 1.10

Q: And the “RR (relative risk for RMI)” value (F7 hCV783184, Maj Hom(GG) stratum, Statin vs Placebo)?
A: 0.64

Q: And the “RR (relative risk for RMI)” value (F7 hCV783184, Min Hom(TT) stratum, Statin vs Placebo)?
A: 2.59

Q: And the “RR (relative risk for RMI)” value (F7 hCV783184, Statin stratum, het (TG) vs. ref(GG))?
A: 1.28

Q: And the “RR (relative risk for RMI)” value (F7 hCV783184, Statin stratum, hom(TT) vs. ref(GG))?
A: 1.65

Q: And the “RR (relative risk for RMI)” value (FCAR hCV7841642, Het(GA) stratum, Statin vs Placebo)?
A: 0.32

Q: What about the “RR (relative risk for RMI)” value (FCAR hCV7841642, Maj Hom(GG) stratum, Statin vs Placebo) of the same compound?
A: 0.82

Q: What about the “RR (relative risk for RMI)” value (FCAR hCV7841642, Min Hom(AA) stratum, Statin vs Placebo) of the same compound?
A: 1.33

Q: What about the “RR (relative risk for RMI)” value (FCAR hCV7841642, Statin stratum, het(GA) vs. ref(GG)) of the same compound?
A: 0.60

Q: And the “RR (relative risk for RMI)” value (FCAR hCV7841642, Statin stratum, hom (AA)vs. ref(GG))?
A: 1.38

Q: And the “RR (relative risk for RMI)” value (FN1 hCV9506149, Het(TA) stratum, Statin vs Placebo)?
A: 0.90

Q: What about the “RR (relative risk for RMI)” value (FN1 hCV9506149, Maj Hom(AA) stratum, Statin vs Placebo) of the same compound?
A: 0.58

Q: What about the “RR (relative risk for RMI)” value (FN1 hCV9506149, Min Hom(TT) stratum, Statin vs Placebo) of the same compound?
A: 1.10

Q: And the “RR (relative risk for RMI)” value (FN1 hCV9506149, Statin stratum, het(TA) vs. ref(AA))?
A: 1.15

Q: What about the “RR (relative risk for RMI)” value (FN1 hCV9506149, Statin stratum, hom(TT) vs. ref(AA)) of the same compound?
A: 1.72

Q: And the “RR (relative risk for RMI)” value (HLA-DPB1 hCV8851085, Het(GA) stratum, Statin vs Placebo, covars hx_smoke)?
A: 0.87

Q: What about the “RR (relative risk for RMI)” value (HLA-DPB1 hCV8851085, Maj Hom(GG) stratum, Statin vs Placebo, covars hx_smoke) of the same compound?
A: 0.58

Q: And the “RR (relative risk for RMI)” value (HLA-DPB1 hCV8851085, Min Hom(AA) stratum, Statin vs Placebo, covars hx_smoke)?
A: 2.19

Q: And the “RR (relative risk for RMI)” value (HLA-DPB1 hCV8851085, Statin stratum, het (GA)vs. ref(GG), covars hx_smoke)?
A: 1.40

Q: What about the “RR (relative risk for RMI)” value (HLA-DPB1 hCV8851085, Statin stratum, hom(AA) vs. ref(GG), covars hx_smoke) of the same compound?
A: 1.97

Q: What about the “RR (relative risk for RMI)” value (HSPG2 hCV1603656, Het(TC) stratum, Statin vs Placebo, covars hx_smoke) of the same compound?
A: 0.42

Q: What about the “RR (relative risk for RMI)” value (HSPG2 hCV1603656, Maj Hom (CC) stratum, Statin vs Placebo, covars hx_smoke) of the same compound?
A: 0.80

Q: What about the “RR (relative risk for RMI)” value (HSPG2 hCV1603656, Statin stratum, het (TC)vs. ref(CC), covars hx_smoke) of the same compound?
A: 0.65

Q: What about the “RR (relative risk for RMI)” value (HSPG2 hCV1603692, Het(TC) stratum, Statin vs Placebo, covars none) of the same compound?
A: 0.37

Q: What about the “RR (relative risk for RMI)” value (HSPG2 hCV1603692, Maj Hom (CC) stratum, Statin vs Placebo, covars none) of the same compound?
A: 0.79

Q: What about the “RR (relative risk for RMI)” value (HSPG2 hCV1603692, Statin stratum, het (TC)vs. ref(CC), covars none) of the same compound?
A: 0.65

Q: And the “RR (relative risk for RMI)” value (HSPG2 hCV1603697, Het(TC) stratum, Statin vs Placebo, covars none)?
A: 0.37

Q: What about the “RR (relative risk for RMI)” value (HSPG2 hCV1603697, Maj Hom (CC) stratum, Statin vs Placebo, covars none) of the same compound?
A: 0.80

Q: And the “RR (relative risk for RMI)” value (HSPG2 hCV1603697, Statin stratum, het (TC)vs. ref(CC), covars none)?
A: 0.65
